From patent publication US20260184675A1, “CHIRAL ISOMERIC SULFITE COMPOUND AND APPLICATION THEREOF” (Chengdu Hanova BioSciences Co., Ltd, priority 2024, published 2026)
Where “and” joins values, the source holds several entries; their conditions need not be identical. Equal entries are not always repeated.

Tests used:
eggs of Panonychus citri = experiment: Effect on hatching of eggs of Panonychus citri, leaf disc method; type: in vivo; conditions: 1 ppm; for Hatching rate (%), Replicate 1 / Hatching rate (%), Replicate 2 / Hatching rate (%), Replicate 3 / Number of hatched larvae 5 days after insecticide delivery, Replicate 1 / Number of hatched larvae 5 days after insecticide delivery, Replicate 2 / Number of hatched larvae 5 days after insecticide delivery, Replicate 3: Panonychus citri eggs; for Hatching rate (%), Replicate 1 / Hatching rate (%), Replicate 2 / Hatching rate (%), Replicate 3: 5 days after delivery; for Number of hatched larvae 5 days after insecticide delivery, Replicate 1 / Number of hatched larvae 5 days after insecticide delivery, Replicate 2 / Number of hatched larvae 5 days after insecticide delivery, Replicate 3: leaf disc
[1] = tested on: eggs of Harmonia axyridis; experiment: Effect on hatching of eggs of Harmonia axyridis, egg card immersion; type: in vivo; conditions: 100 ppm; for Number of hatched larvae 4 days after insecticide delivery, Replicate 1 / Number of hatched larvae 4 days after insecticide delivery, Replicate 2 / Number of hatched larvae 4 days after insecticide delivery, Replicate 3: Harmonia axyridis egg cards, immersed 30 seconds; for Hatching rate (%), Replicate 1 / Hatching rate (%), Replicate 2 / Hatching rate (%), Replicate 3: Harmonia axyridis eggs, 4 days after delivery
In short: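 Egg cards (~20 eggs each) dipped 30 s in 100 ppm insecticide, air dried and kept moist at 27° C; 5 cards per treatment, 3 replicates. Hatching assessed 4 days after treatment against pre-treatment egg counts, and control effect calculated by formula.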

eggs of Thrips = experiment: Effect on hatching of eggs of Thrips, leaf disc method; type: in vivo; conditions: 100 ppm; for Hatching rate (%): 5 days after insecticide delivery
In short: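 Egg-bearing Vicia faba leaf discs (diameter 2.0 cm, wetted filter paper beneath) were counted microscopically for baseline eggs. They were then soaked for 10 seconds in water or in test agent at 100 ppm. After moist incubation in lidded dishes, with controlled temperature and humidity and adequate indirect light, hatched larvae were counted five days post-delivery to judge hatching inhibition.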

Magnaporthe grisea = type: cell-based; conditions: 100 ppm; for Average antifungal rate (%) / Antifungal rate of Magnaporthe grisea (%), Replicate 1 / Antifungal rate of Magnaporthe grisea (%), Replicate 2 / Antifungal rate of Magnaporthe grisea (%), Replicate 3: 96-well plate; for Average antifungal rate (%): average of 3 replicates
[2] = Replicate 1, listed as 19′-(S, R)
[3] = Replicate 2, listed as 19′-(S, R)
[4] = Replicate 3, listed as 19′-(S, R)
[5] = Replicate 1, listed as 19′-(S, S)
[6] = Replicate 2, listed as 19′-(S, S)
[7] = Replicate 3, listed as 19′-(S, S)

Structure (SMILES): CC[C@H](COS(=O)OCCF)Oc1ccc(Cl)cc1Cl (stereo partly drawn) [19′-(R,S)]
- Hatching rate (%), Replicate 1 (eggs of Panonychus citri): 10.43%
- Hatching rate (%), Replicate 2 (eggs of Panonychus citri): 10.42%
- Hatching rate (%), Replicate 3 (eggs of Panonychus citri): 9.57%
- Number of hatched larvae 5 days after insecticide delivery, Replicate 1 (eggs of Panonychus citri): 12
- Number of hatched larvae 5 days after insecticide delivery, Replicate 2 (eggs of Panonychus citri): 10
- Number of hatched larvae 5 days after insecticide delivery, Replicate 3 (eggs of Panonychus citri): 9
- Number of hatched larvae 4 days after insecticide delivery, Replicate 1 [1]: 11
- Number of hatched larvae 4 days after insecticide delivery, Replicate 2 [1]: 10
- Number of hatched larvae 4 days after insecticide delivery, Replicate 3 [1]: 9
- Hatching rate (%), Replicate 1 [1]: 10.28%
- Hatching rate (%), Replicate 2 [1]: 10.53%
- Hatching rate (%), Replicate 3 [1]: 9.78%
- Hatching rate (%) (eggs of Thrips; Replicate 1): 9.02%
- Hatching rate (%) (eggs of Thrips; Replicate 2): 9.18%
- Hatching rate (%) (eggs of Thrips; Replicate 3): 8.74%
- Number of hatched larvae 5 days after insecticide delivery (eggs of Thrips; Replicate 1): 12
- Number of hatched larvae 5 days after insecticide delivery (eggs of Thrips; Replicate 2): 9
- Number of hatched larvae 5 days after insecticide delivery (eggs of Thrips; Replicate 3): 9
- inhibitory rate against Magnaporthe grisea (in words) (Magnaporthe grisea): strong inhibitory rate
- Average antifungal rate (%) (Magnaporthe grisea): 97.19% and 86.12%
- Antifungal rate of Magnaporthe grisea (%), Replicate 1 (Magnaporthe grisea): 85.69%
- Antifungal rate of Magnaporthe grisea (%), Replicate 2 (Magnaporthe grisea): 86.41%
- Antifungal rate of Magnaporthe grisea (%), Replicate 3 (Magnaporthe grisea): 86.27%

Structure (SMILES): CC[C@@H](COS(=O)OCCF)Oc1ccc(Cl)cc1Cl (stereo partly drawn) [19′-(S,R)]
- Hatching rate (%), Replicate 1 (eggs of Panonychus citri; listed as 19′-(S, R)): 9.57%
- Hatching rate (%), Replicate 2 (eggs of Panonychus citri; listed as 19′-(S, R)): 10.28%
- Hatching rate (%), Replicate 3 (eggs of Panonychus citri; listed as 19′-(S, R)): 10.08%
- Number of hatched larvae 5 days after insecticide delivery, Replicate 1 (eggs of Panonychus citri; listed as 19′-(S, R)): 9
- Number of hatched larvae 5 days after insecticide delivery, Replicate 2 (eggs of Panonychus citri; listed as 19′-(S, R)): 11
- Number of hatched larvae 5 days after insecticide delivery, Replicate 3 (eggs of Panonychus citri; listed as 19′-(S, R)): 12
- Number of hatched larvae 4 days after insecticide delivery, Replicate 1 ([1]; listed as 19′-(S, R)): 10
- Number of hatched larvae 4 days after insecticide delivery, Replicate 2 ([1]; listed as 19′-(S, R)): 10
- Number of hatched larvae 4 days after insecticide delivery, Replicate 3 ([1]; listed as 19′-(S, R)): 11
- Hatching rate (%), Replicate 1 ([1]; listed as 19′-(S, R)): 10.42%
- Hatching rate (%), Replicate 2 ([1]; listed as 19′-(S, R)): 9.35%
- Hatching rate (%), Replicate 3 ([1]; listed as 19′-(S, R)): 9.82%
- Hatching rate (%) (eggs of Thrips; [2]): 9.40%
- Hatching rate (%) (eggs of Thrips; [3]): 10.32%
- Hatching rate (%) (eggs of Thrips; [4]): 9.52%
- Number of hatched larvae 5 days after insecticide delivery (eggs of Thrips; [2]): 11
- Number of hatched larvae 5 days after insecticide delivery (eggs of Thrips; [3]): 13
- Number of hatched larvae 5 days after insecticide delivery (eggs of Thrips; [4]): 8
- inhibitory rate against Magnaporthe grisea (in words) (Magnaporthe grisea): strong inhibitory rate
- Average antifungal rate (%) (Magnaporthe grisea): 86.23%
- Antifungal rate of Magnaporthe grisea (%), Replicate 1 (Magnaporthe grisea): 86.44%
- Antifungal rate of Magnaporthe grisea (%), Replicate 2 (Magnaporthe grisea): 85.97%
- Antifungal rate of Magnaporthe grisea (%), Replicate 3 (Magnaporthe grisea): 86.28%

Structure (SMILES): CC[C@@H](COS(=O)OCCF)Oc1ccc(Cl)cc1Cl (stereo partly drawn) [19′-(S,S)]
- inhibitory effect on the hatching of eggs of Panonychus citri (in words) (eggs of Panonychus citri): good inhibitory effects
- Hatching rate (%), Replicate 1 (eggs of Panonychus citri; listed as 19′-(S, S)): 0.00%
- Hatching rate (%), Replicate 2 (eggs of Panonychus citri; listed as 19′-(S, S)): 0.00%
- Hatching rate (%), Replicate 3 (eggs of Panonychus citri; listed as 19′-(S, S)): 0.00%
- Number of hatched larvae 5 days after insecticide delivery, Replicate 1 (eggs of Panonychus citri; listed as 19′-(S, S)): 0
- Number of hatched larvae 5 days after insecticide delivery, Replicate 2 (eggs of Panonychus citri; listed as 19′-(S, S)): 0
- Number of hatched larvae 5 days after insecticide delivery, Replicate 3 (eggs of Panonychus citri; listed as 19′-(S, S)): 0
- inhibitory activity on the hatching of eggs of Harmonia axyridis (in words) [1]: strong inhibitory activities
- Number of hatched larvae 4 days after insecticide delivery, Replicate 1 ([1]; listed as 19′-(S, S)): 0
- Number of hatched larvae 4 days after insecticide delivery, Replicate 2 ([1]; listed as 19′-(S, S)): 0
- Number of hatched larvae 4 days after insecticide delivery, Replicate 3 ([1]; listed as 19′-(S, S)): 0
- Hatching rate (%), Replicate 1 ([1]; listed as 19′-(S, S)): 0.00%
- Hatching rate (%), Replicate 2 ([1]; listed as 19′-(S, S)): 0.00%
- Hatching rate (%), Replicate 3 ([1]; listed as 19′-(S, S)): 0.00%
- inhibitory activity on the hatching of eggs of Thrips (in words) (eggs of Thrips): strong inhibitory activities
- Hatching rate (%) (eggs of Thrips; [5]): 0.00%
- Hatching rate (%) (eggs of Thrips; [6]): 0.00%
- Hatching rate (%) (eggs of Thrips; [7]): 0.00%
- Number of hatched larvae 5 days after insecticide delivery (eggs of Thrips; [5]): 0
- Number of hatched larvae 5 days after insecticide delivery (eggs of Thrips; [6]): 0
- Number of hatched larvae 5 days after insecticide delivery (eggs of Thrips; [7]): 0
- inhibitory rate against Magnaporthe grisea (in words) (Magnaporthe grisea): strong inhibitory rate
- Average antifungal rate (%) (Magnaporthe grisea): 97.09%
- Antifungal rate of Magnaporthe grisea (%), Replicate 1 (Magnaporthe grisea): 97.41%
- Antifungal rate of Magnaporthe grisea (%), Replicate 2 (Magnaporthe grisea): 96.58%
- Antifungal rate of Magnaporthe grisea (%), Replicate 3 (Magnaporthe grisea): 97.29%

Structure (SMILES): CC(COS(=O)OCCF)Oc1ccc(Cl)cc1Cl (centres unmarked) [Compound 1]
- inhibitory effect on the hatching of eggs of Panonychus citri (in words) (eggs of Panonychus citri): good inhibitory effects
- Hatching rate (%), Replicate 1 (eggs of Panonychus citri): 0.00%
- Hatching rate (%), Replicate 2 (eggs of Panonychus citri): 0.00%
- Hatching rate (%), Replicate 3 (eggs of Panonychus citri): 0.00%
- Number of hatched larvae 5 days after insecticide delivery, Replicate 1 (eggs of Panonychus citri): 0
- Number of hatched larvae 5 days after insecticide delivery, Replicate 2 (eggs of Panonychus citri): 0
- Number of hatched larvae 5 days after insecticide delivery, Replicate 3 (eggs of Panonychus citri): 0
- inhibitory activity on the hatching of eggs of Harmonia axyridis (in words) [1]: strong inhibitory activities
- Number of hatched larvae 4 days after insecticide delivery, Replicate 1 [1]: 7
- Number of hatched larvae 4 days after insecticide delivery, Replicate 2 [1]: 6
- Number of hatched larvae 4 days after insecticide delivery, Replicate 3 [1]: 6
- Hatching rate (%), Replicate 1 [1]: 6.25%
- Hatching rate (%), Replicate 2 [1]: 6.38%
- Hatching rate (%), Replicate 3 [1]: 6.06%
- inhibitory activity on the hatching of eggs of Thrips (in words) (eggs of Thrips): strong inhibitory activities
- Hatching rate (%) (eggs of Thrips; Replicate 1): 0.00%
- Hatching rate (%) (eggs of Thrips; Replicate 2): 1.57%
- Hatching rate (%) (eggs of Thrips; Replicate 3): 0.00%
- Number of hatched larvae 5 days after insecticide delivery (eggs of Thrips; Replicate 1): 0
- Number of hatched larvae 5 days after insecticide delivery (eggs of Thrips; Replicate 2): 2
- Number of hatched larvae 5 days after insecticide delivery (eggs of Thrips; Replicate 3): 0
- inhibitory rate against Magnaporthe grisea (in words) (Magnaporthe grisea): strong inhibitory rate
- Average antifungal rate (%) (Magnaporthe grisea): 95.42%
- Antifungal rate of Magnaporthe grisea (%), Replicate 1 (Magnaporthe grisea): 96.34%
- Antifungal rate of Magnaporthe grisea (%), Replicate 2 (Magnaporthe grisea): 95.11%
- Antifungal rate of Magnaporthe grisea (%), Replicate 3 (Magnaporthe grisea): 94.82%
